Measured values published in patent publication US20220324835A1 (Nurix Therapeutics, Inc., priority 2018, published 2022).

How the values were obtained:
[1] = target: T1, Cbl-b (Homo sapiens, UniProt Q13191); experiment: Cbl-b inhibition assay (Cbl-b activity assay, FRET, Biological Example 1; 100 mM NaCl, 60 nM Src kinase); assay type: biochemical
Method in brief: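 Here, the E2 UbcH5B, irreversibly linked to Bodipy-fluorescein ubiquitin, binds Cbl-b once Src kinase phosphorylates it; Cbl-b carries an N-terminal biotinylated Avi-tag captured by streptavidin-terbium. An absent FRET signal indicates inhibition.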

[2] = tested on: T-cell; experiment: IL-2 secretion from T-cells co-stimulated with anti-CD3 and anti-CD28 antibody (Biological Example 2); assay type: cell-based, human; details: Homo sapiens, T-cell; for fold induction at 4 µM: 4 μM Cbl-b inhibitor
Method in brief: (§1)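 Values are fold-change over baseline: readings (IL-2 release, CD25 staining) from inhibitor-treated T-cells divided against untreated cells […]. No detailed procedure stated.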

[3] = tested on: T-cell; experiment: IL-2 secretion from T-cells stimulated with anti-CD3 antibody alone (Biological Example 2); assay type: cell-based, human; details: T-cell; for fold induction at 8 µM: 8 μM Cbl-b inhibitor
[4] = tested on: T-cell; experiment: CD25 cell surface staining on T-cells co-stimulated with anti-CD3 and anti-CD28 antibody (Biological Example 2); assay type: cell-based, human; details: Homo sapiens, T-cell; for fold induction at 4 µM: 4 μM Cbl-b inhibitor
Method in brief: as §1

[5] = tested on: T-cell; experiment: CD25 cell surface staining on T-cells stimulated with anti-CD3 antibody alone (Biological Example 2); assay type: cell-based, human; details: T-cell; for fold induction at 8 µM: 8 μM Cbl-b inhibitor
[6] = target: T1, Cbl-b; experiment: Cbl-b activity assay (Cbl-b inhibition assay), TR-FRET of Cbl-b interaction with UbcH5B-Ub; assay type: biochemical; details: assay buffer with 100 mM NaCl, 60 nM Src kinase
Method in brief: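 Compound-treated Cbl-b was incubated 1.5 h with Src kinase (60 nM final; 30 nM for asterisked values, which also used 50 mM instead of 100 mM NaCl), 1 mM ATP and 5 mM MgCl2. Binding to fluorescent Ub-loaded UbcH5B (C85K mutant) was then read by TR-FRET after 1 h more.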

[7] = upper bound stated in text lists, read-out: IC50 values in the Cbl-b inhibition assay of Biological Example 1
[8] = fold change over baseline, 0.3 μM Cbl-b inhibitor, primary human total T-cells, read-out: IL-2 secretion Anti-CD3/Anti-CD28 stimulation
[9] = fold change over baseline, 1 μM Cbl-b inhibitor, primary human total T-cells, read-out: IL-2 secretion Anti-CD3/Anti-CD28 stimulation
[10] = fold change over baseline, 1 μM Cbl-b inhibitor, primary human total T-cells, read-out: IL-2 secretion Anti-CD3 stimulation
[11] = fold change over baseline, 0.3 μM Cbl-b inhibitor, primary human total T-cells, read-out: CD25 staining Anti-CD3/Anti-CD28 stimulation
[12] = fold change over baseline, 1 μM Cbl-b inhibitor, primary human total T-cells, read-out: CD25 staining Anti-CD3/Anti-CD28 stimulation
[13] = fold change over baseline, 1 μM Cbl-b inhibitor, primary human total T-cells, read-out: CD25 staining Anti-CD3 stimulation
[14] = fold change over baseline, primary human total T-cells, read-out: IL-2 secretion Anti-CD3/Anti-CD28 stimulation
[15] = fold change over baseline, primary human total T-cells, read-out: IL-2 secretion Anti-CD3 stimulation
[16] = fold change over baseline, primary human total T-cells, read-out: CD25 staining Anti-CD3/Anti-CD28 stimulation
[17] = fold change over baseline, primary human total T-cells, read-out: CD25 staining Anti-CD3 stimulation
[18] = read-out: IL-2 secretion, Anti-CD3/Anti-CD28 stimulation, fold change over baseline
[19] = Homo sapiens, read-out: IL-2 secretion, Anti-CD3 stimulation, fold change over baseline
[20] = read-out: CD25 staining, Anti-CD3/Anti-CD28 stimulation, fold change over baseline
[21] = Homo sapiens, read-out: CD25 staining, Anti-CD3 stimulation, fold change over baseline

T1 sequence (Q13191 36-427): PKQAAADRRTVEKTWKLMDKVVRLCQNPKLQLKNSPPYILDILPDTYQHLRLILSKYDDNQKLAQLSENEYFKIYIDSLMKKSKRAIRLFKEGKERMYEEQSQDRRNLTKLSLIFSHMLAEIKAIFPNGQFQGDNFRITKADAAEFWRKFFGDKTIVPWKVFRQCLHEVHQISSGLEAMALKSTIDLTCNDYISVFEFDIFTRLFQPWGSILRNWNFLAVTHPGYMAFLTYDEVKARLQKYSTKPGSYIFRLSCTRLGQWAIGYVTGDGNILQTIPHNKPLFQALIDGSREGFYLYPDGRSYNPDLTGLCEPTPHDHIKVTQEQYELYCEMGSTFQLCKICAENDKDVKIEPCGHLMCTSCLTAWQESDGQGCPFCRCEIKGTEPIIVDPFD

Row | SMILES | IC50 [1, 7] [nM] | fold induction at 0.3 µM [2, 8] | fold induction at 1 µM [2, 9] | fold induction at 1 µM [3, 10] | fold induction at 0.3 µM [4, 11] | fold induction at 1 µM [4, 12] | fold induction at 1 µM [5, 13] | IC50 ([6]; read-out: Cbl-b activity IC50) [µM] | fold induction at 4 µM [2, 14] | fold induction at 8 µM [3, 15] | fold induction at 4 µM [4, 16] | fold induction at 8 µM [5, 17] | fold induction at 0.3 µM [2, 18] | fold induction at 1 µM [2, 18] | fold induction at 1 µM [3, 19] | fold induction at 0.3 µM [4, 20] | fold induction at 1 µM [4, 20] | fold induction at 1 µM [5, 21] | IC50 ([1]; IC50 values in the Cbl-b inhibition assay of Biological Example 1) [nM] | IC50 ([6]; Cbl-b activity IC50 (μM)) [µM]
1 | Cc1cc(C(=O)Nc2cccc(C3(C(F)(F)c4nncn4C)CC3)c2)nc(C2CC2)n1 [Compound 346, 2-cyclopropyl-N-(3-{1-[difluoro(4-methyl-4H-1,2,4-triazol-3-yl)methyl]cyclopropyl}phenyl)-6-methylpyrimidine-4-carboxamide] | ≤ 100 | 1.01 to 2.5 | 2.51 to 5 | 0.101 to 0.15 | 1.01 to 1.3 | 1.01 to 1.3 | 0.601 to 0.8 | < 0.1 | – | – | – | – | – | – | – | – | – | – | – | –
2 | Cn1cnnc1CC1(c2cccc(NC(=O)c3cc(C4CC4)nc(C4CC4)n3)c2)COC1 [Compound 347, 2,6-dicyclopropyl-N-(3-(3-((4-methyl-4H-1,2,4-triazol-3-yl)methyl)oxetan-3-yl)phenyl)pyrimidine-4-carboxamide] | ≤ 100 | 2.51 to 5 | > 7.5 | 0.151 to 0.2 | 1.01 to 1.3 | 1.01 to 1.3 | > 1 | < 0.1 | > 7.5 | > 0.201 | 1.31 to 1.5 | > 1 | – | – | – | – | – | – | – | –
3 | CN1CCN(c2cc(C(=O)Nc3cccc(C4(Cc5nncn5C)COC4)c3)nc(C3CC3)n2)CC1 [Compound 348, 2-Cyclopropyl-N-(3-(3-((4-methyl-4H-1,2,4-triazol-3-yl)methyl)oxetan-3-yl)phenyl)-6-(4-methylpiperazin-1-yl)pyrimidine-4-carboxamide] | ≤ 100 | 2.51 to 5 | > 7.5 | > 0.201 | 1.31 to 1.5 | 1.31 to 1.5 | 0.801 to 1 | < 0.1 | – | – | – | – | – | – | – | – | – | – | – | –
4 | C[C@H](Cc1nncn1C)c1cc(NC2CCC2)nc(N2Cc3c(cccc3C(F)(F)F)C2=O)c1 [Compound 351, 2-[6-(cyclobutylamino)-4-[(2R)-1-(4-methyl-4H-1,2,4-triazol-3-yl)propan-2-yl]pyridin-2-yl]-4-(trifluoromethyl)-2,3-dihydro-1H-isoindol-1-one] | ≤ 300 | 1.01 to 2.5 | 1.01 to 2.5 | < 0.05 | 1.01 to 1.3 | 1.01 to 1.3 | 0.601 to 0.8 | 0.1 to 0.3 | 1.01 to 2.5 | 0.151 to 0.2 | 1.01 to 1.3 | > 1 | – | – | – | – | – | – | – | –
5 | C[C@H](Cc1nncn1C)c1cc(OC2COC2)nc(N2Cc3c(cccc3C(F)(F)F)C2=O)c1 [Compound 354, 2-{4-[(2R)-1-(4-methyl-4H-1,2,4-triazol-3-yl)propan-2-yl]-6-(oxetan-3-yloxy)pyridin-2-yl}-4-(trifluoromethyl)-2,3-dihydro-1H-isoindol-1-one] | ≤ 300 | 1.01 to 2.5 | 1.01 to 2.5 | 0.101 to 0.15 | 1.01 to 1.3 | 1.01 to 1.3 | 0.601 to 0.8 | 0.1 to 0.3 | 5 to 7.5 | > 0.201 | 1.31 to 1.5 | > 1 | – | – | – | – | – | – | – | –
6 | C[C@H](Cc1nncn1C)c1cc(OCC(F)F)nc(N2Cc3c(cccc3C(F)(F)F)C2=O)c1 [Compound 356, (R)-2-(6-(2,2-difluoroethoxy)-4-(1-(4-methyl-4H-1,2,4-triazol-3-yl)propan-2-yl)pyridin-2-yl)-4-(trifluoromethyl)isoindolin-1-one] | ≤ 100 | 2.51 to 5 | 2.51 to 5 | 0.151 to 0.2 | 1.01 to 1.3 | 1.01 to 1.3 | 0.801 to 1 | < 0.1 | > 7.5 | > 0.201 | 1.31 to 1.5 | > 1 | – | – | – | – | – | – | – | –
7 | CN1C2CCC1CN(c1cc3c(c(C(F)(F)F)c1)CN(c1cccc(C4(Cc5nncn5C)COC4)c1)C3=O)C2 [Compound 388, 2-(3-(3-((4-Methyl-4H-1,2,4-triazol-3-yl)methyl)oxetan-3-yl)phenyl)-6-(8-methyl-3,8-diazabicyclo[3.2.1]octan-3-yl)-4-(trifluoromethyl)isoindolin-1-one] | ≤ 100 | – | – | – | – | – | – | < 0.1 | – | – | – | – | 2.51 to 5 | 5 to 7.5 | 0.151 to 0.2 | 1.01 to 1.3 | 1.01 to 1.3 | > 1 | – | –
8 | Cn1cnnc1CC1(c2cccc(NC(=O)c3nc(C(F)(F)F)cs3)c2)COC1 [Compound 495, N-(3-{3-[(4-methyl-1,2,4-triazol-3-yl)methyl]oxetan-3-yl}phenyl)-4-(trifluoromethyl)-1,3-thiazole-2-carboxamide] | – | – | – | – | – | – | – | – | – | – | – | – | 1.01 to 2.5 | 2.51 to 5 | < 0.05 | 1.01 to 1.3 | 1.01 to 1.3 | 0.601 to 0.8 | ≤ 1000 | 0.301 to 1
9 | Cn1cnnc1CC1(c2cccc(N3Cc4c(cc(CN5C6CCC5CC6)cc4C(F)(F)F)C3=O)c2)COC1 [Example 555, 6-((7-azabicyclo[2.2.1]heptan-7-yl)methyl)-2-(3-(3-((4-methyl-4H-1,2,4-triazol-3-yl)methyl)oxetan-3-yl)phenyl)-4-(trifluoromethyl)isoindolin-1-one] | ≤ 100 | – | – | – | – | – | – | < 0.1 | – | – | – | – | > 7.5 | > 7.5 | > 0.201 | 1.51 to 1.75 | 1.51 to 1.75 | > 1 | – | –
10 | Cn1cnnc1CC1(c2cccc(N3Cc4c(cc(CN5C6CCCC5CC6)cc4C(F)(F)F)C3=O)c2)COC1 [Example 556, 6-((8-azabicyclo[3.2.1]octan-8-yl)methyl)-2-(3-(3-((4-methyl-4H-1,2,4-triazol-3-yl)methyl)oxetan-3-yl)phenyl)-4-(trifluoromethyl)isoindolin-1-one] | ≤ 100 | – | – | – | – | – | – | < 0.1 | – | – | – | – | > 7.5 | > 7.5 | > 0.201 | > 1.76 | > 1.76 | > 1 | – | –
11 | Cn1cnnc1CC1(c2cccc(N3Cc4c(cc(CN5[C@@H]6CC[C@H]5C[C@@H](F)C6)cc4C(F)(F)F)C3=O)c2)COC1 [Example 557, 6-(((1R,3r,5S)-3-fluoro-8-azabicyclo[3.2.1]octan-8-yl)methyl)-2-(3-(3-((4-methyl-4H-1,2,4-triazol-3-yl)methyl)oxetan-3-yl)phenyl)-4-(trifluoromethyl)isoindolin-1-one] | ≤ 100 | – | – | – | – | – | – | < 0.1 | – | – | – | – | 5 to 7.5 | > 7.5 | > 0.201 | > 1.76 | > 1.76 | > 1 | – | –
